Results as given in patent publication US20260132129A1 (Genesis Therapeutics, Inc., priority 2022, published 2026).
pIC50: −log10 of the molar value.

Molecular target: T1, PI3Kα H1047R (T47D cells) (Homo sapiens, UniProt P42336, H1047R)
T1 construct: endogenous in cells; host or cells: T47D cells
Assay: PI3Kα cellular assay: pAKT HTRF in T47D cells after EGF stimulation
Type: cell-based
Details: for pIC50: T47D cells (PI3Kα H1047R), pAKT S473 HTRF
Procedure, shortened: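 pAKT read by HTRF in lysates of EGF-stimulated (20 ng/mL, 10 min) T47D H1047R cells. Before stimulation, serum-starved cells (16 h) received compound for 1 h at 37 °C, dosed from 10,000 nM down to 0.5 nM in 3-fold steps.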

[1] = selectivity of T47D (H1047R) over SKBR3 (WT) pAKT IC50
[2] = 1 hr compound, 20 ng/ml EGF 10 min
[3] = selectivity T47D (H1047R) over SKBR3 (WT), pAKT HTRF

T1 sequence (P42336 whole entry H1047R): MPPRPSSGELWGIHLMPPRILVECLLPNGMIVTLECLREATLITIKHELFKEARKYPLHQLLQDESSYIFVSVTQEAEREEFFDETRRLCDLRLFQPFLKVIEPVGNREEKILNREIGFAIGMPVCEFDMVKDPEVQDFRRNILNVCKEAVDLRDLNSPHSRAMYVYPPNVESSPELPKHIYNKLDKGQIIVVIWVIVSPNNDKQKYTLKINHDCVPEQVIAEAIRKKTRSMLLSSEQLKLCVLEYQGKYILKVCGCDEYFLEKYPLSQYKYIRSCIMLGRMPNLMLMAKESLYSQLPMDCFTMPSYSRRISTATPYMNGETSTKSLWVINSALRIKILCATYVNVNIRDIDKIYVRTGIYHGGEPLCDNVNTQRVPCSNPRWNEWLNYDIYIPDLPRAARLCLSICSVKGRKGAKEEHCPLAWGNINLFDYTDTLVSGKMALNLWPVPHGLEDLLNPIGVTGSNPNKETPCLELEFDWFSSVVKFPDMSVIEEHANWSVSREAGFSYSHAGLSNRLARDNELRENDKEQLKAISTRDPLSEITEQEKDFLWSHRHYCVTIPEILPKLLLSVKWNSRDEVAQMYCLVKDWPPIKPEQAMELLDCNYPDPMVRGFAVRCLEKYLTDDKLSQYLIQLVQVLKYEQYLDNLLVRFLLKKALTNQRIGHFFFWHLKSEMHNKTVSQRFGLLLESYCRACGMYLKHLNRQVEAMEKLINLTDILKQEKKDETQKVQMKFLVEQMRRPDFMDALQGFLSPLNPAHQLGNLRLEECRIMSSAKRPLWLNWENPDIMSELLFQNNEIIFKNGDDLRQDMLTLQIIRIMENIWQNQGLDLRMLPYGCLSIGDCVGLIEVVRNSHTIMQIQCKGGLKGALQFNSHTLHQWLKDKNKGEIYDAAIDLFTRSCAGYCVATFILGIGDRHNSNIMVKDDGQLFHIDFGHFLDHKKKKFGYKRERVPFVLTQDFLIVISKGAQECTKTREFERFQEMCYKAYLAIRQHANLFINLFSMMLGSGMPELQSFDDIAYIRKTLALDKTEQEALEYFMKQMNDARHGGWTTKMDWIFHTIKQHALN
T1 sequence (P27986 whole entry partner): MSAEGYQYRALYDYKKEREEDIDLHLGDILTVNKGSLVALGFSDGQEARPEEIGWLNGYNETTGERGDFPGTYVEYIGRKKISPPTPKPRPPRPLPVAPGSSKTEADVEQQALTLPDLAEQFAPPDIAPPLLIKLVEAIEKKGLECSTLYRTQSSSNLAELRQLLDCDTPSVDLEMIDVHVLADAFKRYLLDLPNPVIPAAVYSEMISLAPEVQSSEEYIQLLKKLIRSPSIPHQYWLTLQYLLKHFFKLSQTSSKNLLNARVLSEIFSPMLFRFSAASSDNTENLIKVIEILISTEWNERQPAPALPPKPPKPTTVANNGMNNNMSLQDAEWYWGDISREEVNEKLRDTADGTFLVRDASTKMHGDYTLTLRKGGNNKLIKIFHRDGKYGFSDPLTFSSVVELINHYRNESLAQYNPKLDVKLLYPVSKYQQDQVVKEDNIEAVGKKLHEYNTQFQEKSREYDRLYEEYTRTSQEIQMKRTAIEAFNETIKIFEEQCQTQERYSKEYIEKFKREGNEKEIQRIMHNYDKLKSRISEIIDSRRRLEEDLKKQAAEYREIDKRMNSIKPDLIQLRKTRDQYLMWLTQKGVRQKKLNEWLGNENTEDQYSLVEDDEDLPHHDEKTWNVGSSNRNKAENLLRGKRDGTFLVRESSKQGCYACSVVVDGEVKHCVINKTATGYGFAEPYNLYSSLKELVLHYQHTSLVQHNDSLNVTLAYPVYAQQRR

Compound | pIC50 (EGF stimulation) | T47D pAKT S473 HTRF IC50 (H1047R): T47D (H1047R) selectivity over SKBR3 (WT) [1] | pIC50 [2] | T47D pAKT S473 HTRF IC50 (H1047R): T47D (H1047R) selectivity over SKBR3 (WT) [3]
Cc1cc(C(C)Nc2ccccc2C(=O)O)c2nc(-c3ccc4c(c3)c(C)nn4C)cc(=O)n2c1 (stereo not drawn) [Compound 725] | > 7.00 | A (A denotes >20-fold) |  | 
Cc1cc([C@H](C)Nc2ccccc2C(=O)O)c2nc(-c3ccc4nc(NC(=O)C5CC5)nn4c3)cc(=O)n2c1 [Compound 521] |  |  | < 5.70 | C (C denotes ≤5-fold)
Cc1cc(C(C)Nc2ccccc2S(N)(=O)=O)c2nc(-c3ccc(C4CCNCC4)nc3)c(C)c(=O)n2c1 (stereo not drawn) [Compound 1304] | 5.70 to 6.30 |  |  | B (B denotes 20-fold≥value>5-fold)
Cc1cc([C@@H](C)Nc2cnncc2C(=O)O)c2nc(N3CCOCC3)cc(=O)n2c1 [Compound 375] |  |  | < 5.70 | C (C denotes ≤5-fold)
COc1ccc(-c2nc3c([C@H](C)Nc4ccccc4C(=O)O)cc(C)cn3c(=O)c2C)cc1 [Compound 1071] | < 5.70 |  |  | C (C denotes ≤5-fold)
Cc1cc([C@@H](C)Nc2ccccc2C(=O)O)c2nc(C3CCOCC3)cc(=O)n2c1 [Compound 316] |  |  | < 5.70 | C (C denotes ≤5-fold)
C#Cc1ccc(-c2nc3c(C(C)Nc4ccccc4C(=O)O)cc(C)cn3c(=O)c2C)cn1 (stereo not drawn) [Compound 1191] | > 7.00 |  |  | A (A denotes >20-fold)
Cc1cc(C(C)Nc2ccccc2S(N)(=O)=O)c2nc(-c3ccc(F)cc3)cc(=O)n2c1 (stereo not drawn) [Compound 586] |  |  | < 5.70 | C (C denotes ≤5-fold)
CCc1ccn2c(=O)c(C)c(-c3cccc(F)c3)nc2c1[C@@H](C)Nc1ccccc1C(=O)O [Compound 1325] |  |  |  | C (C denotes ≤5-fold)
Cc1cc(C(C)Nc2ccccc2C(=O)O)c2nc(-c3ccc4c(c3)CC(F)(F)C4)cc(=O)n2c1 (stereo not drawn) [Compound 821] | 6.30 to 7.00 | A (A denotes >20-fold) |  | 
Cc1cc([C@H](C)Nc2ccccc2C(=O)O)c2nc(-c3ccc4c(c3)c(N(C)C)nn4C)c(C)c(=O)n2c1 [Compound 920] | < 5.70 | C (C denotes ≤5-fold) |  | 
Cc1cc([C@H](C)Nc2ccccc2C(=O)O)c2nc(N3CCC(C)(C)CC3)cc(=O)n2c1 [Compound 728] | < 5.70 | C (C denotes ≤5-fold) |  | 
Cc1cc([C@H](C)Nc2ccccc2C(=O)O)c2cc(-c3ccncn3)cc(=O)n2c1 [Compound 482] |  |  | 5.70 to 6.30 | B (B denotes 20-fold≥value>5-fold)
Cc1cc([C@H](C)Nc2ccccc2C(=O)O)c2nc(-c3cnc4c(c3)c(C)nn4C)c(C)c(=O)n2c1 [Compound 763] | 5.70 to 6.30 | B (B denotes 20-fold≥value>5-fold) |  | 
Cc1cc(C(C)Nc2cc(F)ccc2C(=O)O)c2nc(-c3cccc(F)c3)c(C)c(=O)n2c1 (stereo not drawn) [Compound 1197] | > 7.00 |  |  | A (A denotes >20-fold)
Cc1cc(C(C)Nc2ccccc2C(=O)O)c2nc(-c3ccc4c(n3)c(C)nn4C)c(C)c(=O)n2c1 (stereo not drawn) [Compound 859] | 6.30 to 7.00 | A (A denotes >20-fold) |  | 
Cc1cc(C(C)Nc2ccnnc2C(=O)O)c2nc(N3CCOCC3)cc(=O)n2c1 (stereo not drawn) [Compound 358] |  |  | < 5.70 | C (C denotes ≤5-fold)
Cc1cc(C(C)Nc2cccc3onc(O)c23)c2nc(-c3cccc(F)c3)c(C)c(=O)n2c1 (stereo not drawn) [Compound 1375] | < 5.70 |  |  | C (C denotes ≤5-fold)
Cc1cc(C(C)Nc2cccc3onc(O)c23)c2nc(-c3cccnc3)c(C)c(=O)n2c1 (stereo not drawn) [Compound 1365, 9-(1-((3-hydroxybenzo[d]isoxazol-4-yl)amino)ethyl)-3,7-dimethyl-2-(pyridin-3-yl)-4H-pyrido[1,2-a]pyrimidin-4-one] | 6.30 to 7.00 |  |  | A (A denotes >20-fold)
CC(Nc1ccccc1C(=O)O)c1cc(C(N)=O)cn2c(=O)cc(N3CCOCC3)nc12 (stereo not drawn) [Compound 276] |  |  | > 7.00 | C (C denotes ≤5-fold)
Cc1cc([C@@H](C)Nc2ccccc2C(=O)O)c2nc(-c3cc[nH]c(=O)c3)cc(=O)n2c1 [Compound 461] |  |  | < 5.70 | C (C denotes ≤5-fold)
Cc1cc([C@@H](C)Nc2ccccc2CC(=O)O)c2nc(N3CCOCC3)cc(=O)n2c1 [Compound 157] |  |  | < 5.70 | C (C denotes ≤5-fold)
Cc1cc([C@@H](C)Nc2ccccc2C(=O)O)c2nc(N3C[C@@H](C)C(F)(F)[C@@H](C)C3)cc(=O)n2c1 (single isomer, unassigned) [Compound 711] | > 7.00 | A (A denotes >20-fold) |  | 
